Each compound was assayed on pERK in NCI-H358 cells (assay: Cell-based pERK HTRF assay (pERK inhibition in H358 cells)). Conditions: Homo sapiens, NCI-H358, 0.5 h, pERK inhibition IC50, NCI-H358 cells, 30 min incubation; read-out: PERK in H358 cell.
For `C=CC(=O)N1CCC(N(C)c2nc(OC[C@@H]3CCCN3CC)nc3c(F)c(-c4ccc(F)c5sc(N)c(C#N)c45)c(C(F)(F)F)cc23)[C@H]1C` (stereo partly drawn) [Compound 451], the IC50 was less than 100 nM.
`C=CC(=O)N1CC[C@@H](N(C)c2nc(OC[C@@]34CCCN3C[C@H](F)C4)nc3c(F)c(-c4ccc(F)c5sc(N)c(C#N)c45)c(C(F)(F)F)cc23)[C@@H]1C` [Compound 469] gave an IC50 of less than 100 nM.
Work on `C=CC(=O)N1CCN(c2nc(OC[C@@H]3CCCN3CC(F)F)nc3c(F)c(-c4ccc(F)c5sc(N)nc45)c(C(F)(F)F)cc23)CC1` [Compound 156] yielded an IC50 of less than 100 nM.
`C=CC(=O)N1CCC(N(C)c2nc(OC[C@@H]3CCCN3C)nc3c(F)c(-c4ccc(F)c5sc(N)c(C#N)c45)c(Cl)cc23)[C@H]1C` (stereo partly drawn) [Compound 419] showed an IC50 of less than 100 nM.
Work on `C=CC(=O)N1CCN(c2nc(OCC34CCCN3CC(F)(F)C4)nc3c(F)c(-c4ccc(F)c5sc(N)nc45)c(C(F)(F)F)cc23)CC1` (stereo not drawn) [Compound 192] yielded an IC50 of less than 100 nM.
`C=CC(=O)N1CC[C@@H](N(C)c2nc(OCC34CCCN3CCC4)nc3c(F)c(-c4cc(O)cc5ccccc45)c(C(F)(F)F)cc23)C1` [Compound 226] gave an IC50 of 100 to 1000 nM.
`C=CC(=O)N1C[C@@H](F)[C@@H](N(C)c2nc(OC[C@@H]3C[C@@H](OC)CN3C)nc3cc(-c4ccc(F)c5sc(N)c(C#N)c45)c(C(F)(F)F)cc23)C1` [Compound 361] showed an IC50 of less than 100 nM.
`C=CC(=O)N1CCC(N(C)c2nc(OC[C@@]34CCCN3C[C@H](F)C4)nc3c(C#N)c(-c4ccc(F)c5sc(N)c(C#N)c45)c(Cl)cc23)[C@H]1C` (stereo partly drawn) [Compound 388, 4-((1-acryloyl-2-methylpyrrolidin-3-yl)(methyl)amino)-7-(2-amino-3-cyano-7-fluorobenzo[b]thiophen-4-yl)-6-chloro-2-(((2R,7aS)-2-fluorotetrahydro-1H-pyrrolizin-7a(5H)-yl)methoxy)quinazoline-8-carbonitrile] was tested, and the IC50 was less than 100 nM.
For `C=CC(=O)N1CCC(N(C)c2nc(OC[C@@H]3C[C@@H](OC)CN3C)nc3cc(-c4ccc(F)c5sc(N)c(C#N)c45)c(C#N)cc23)[C@H]1COC` (stereo partly drawn) [Compound 465], the IC50 was 100 to 1000 nM.
In the case of `C=CC(=O)N1CC[C@@H](N(C)c2nc(OC[C@@]34CCCN3C[C@H](F)C4)nc3c(F)c(-c4ccc(F)c5sc(N)c(C#N)c45)ccc23)[C@H]1C` [Compound 358, 4-(4-(((2R,3R)-1-acryloyl-2-methylpyrrolidin-3-yl)(methyl)amino)-8-fluoro-2-(((2R,7aS)-2-fluorotetrahydro-1H-pyrrolizin-7a(5H)-yl)methoxy)quinazolin-7-yl)-2-amino-7-fluorobenzo[b]thiophene-3-carbonitrile], the IC50 is reported as less than 100 nM.
`C=CC(=O)N1CCC(N(C)c2nc(OC[C@@H]3CC4(CC4)CN3C)nc3cc(-c4ccc(F)c5sc(N)c(C#N)c45)c(C#N)cc23)[C@H]1COC` (stereo partly drawn) [Compound 446] showed an IC50 of 100 to 1000 nM.
Work on `C=CC(=O)N1CCC(N(C)c2nc(OC[C@@H]3C[C@@H](F)CN3C)nc3c(F)c(-c4ccc(F)c5sc(N)c(C#N)c45)ccc23)[C@H]1C` (stereo partly drawn) [Compound 429] yielded an IC50 of less than 100 nM.
`C=C(F)C(=O)N1CC[C@@H](N(C)c2nc(OC[C@@]34CCCN3C[C@H](F)C4)nc3c(F)c(-c4ccc(F)c5sc(N)nc45)c(C(F)(F)F)cc23)C1` [Compound 308] gave an IC50 of less than 100 nM.
`C=CC(=O)N1CCC(N(C)c2nc(OC[C@@H]3C[C@@H](OC)CN3C)nc3c(F)c(-c4ccc(F)c5sc(N)c(C#N)c45)c(Cl)cc23)[C@H]1C` (stereo partly drawn) [Compound 450] showed an IC50 of less than 100 nM.
Compound `C=CC(=O)N1CC[C@H](N(C)c2nc(OC[C@@]34CCCN3C[C@H](F)C4)nc3c(F)c(-c4ccc(F)c5sc(N)c(C#N)c45)c(C(F)(F)F)cc23)[C@@H]1C` (single isomer, unassigned) [Compound 472] has an IC50 of less than 100 nM.
`N#CN1CC(Nc2ncnc3c(F)c(-c4ccc(F)c5sc(N)nc45)c(C(F)(F)F)cc23)C1` [Compound 45] showed an IC50 of less than 100 nM.
Work on `C=CC(=O)N1C[C@@H](F)[C@@H](N(CC)c2nc(OC[C@@]34CCCN3C[C@H](F)C4)nc3c(F)c(-c4ccc(F)c5sc(N)c(C#N)c45)c(C(F)(F)F)cc23)C1` [Compound 362] yielded an IC50 of less than 100 nM.
`C=CC(=O)N1CC[C@@H](N(C)c2nc(OC[C@@]34CCCN3C[C@H](F)C4)nc3c(F)c(-c4ccc(F)c5sc(N)c(C#N)c45)c(C(F)(F)F)cc23)[C@H]1C` [Compound 381, 4-(4-(((2R,3R)-1-acryloyl-2-methylpyrrolidin-3-yl)(methyl)amino)-8-fluoro-2-(((2R,7aS)-2-fluorotetrahydro-1H-pyrrolizin-7a(5H)-yl)methoxy)-6-(trifluoromethyl)quinazolin-7-yl)-2-amino-7-fluorobenzo[b]thiophene-3-carbonitrile] was tested, and the IC50 was less than 100 nM.
`C=CC(=O)N1CC[C@@H](N(C)c2nc(OC[C@@]34CCCN3C[C@H](OC)C4)nc3c(F)c(-c4ccc(F)c5sc(N)nc45)c(C(F)(F)F)cc23)C1` [Compound 290] was tested, and the IC50 was less than 100 nM.
With `C=CC(=O)N1CCC(N(C)c2nc(OCCOC)nc3c(F)c(-c4ccc(F)c5sc(N)c(C#N)c45)ccc23)[C@H]1C` (stereo partly drawn) [Compound 466] the IC50 was greater than 1000 nM.
`C=CC(=O)N1CCC(N(C)c2nc(OC[C@@H]3C[C@@H](OC)CN3C)nc3c(F)c(-c4ccc(F)c5sc(N)c(C#N)c45)c(C(F)(F)F)cc23)[C@H]1COC` (stereo partly drawn) [Compound 454] was tested, and the IC50 was less than 100 nM.
`C=CC(=O)N1CC[C@@H](N(C)c2nc(OC[C@@]34CCCN3C[C@H](F)C4)nc3c(F)c(-c4ccc(F)c5sc(N)nc45)c(C(F)(F)F)cc23)C1` (single isomer, unassigned) [Compound 239] was tested, and the IC50 was less than 100 nM.
`C=CC(=O)N1C[C@H](C)N(c2nc(OC[C@]34CCCN3C[C@@H](F)C4)nc3c(F)c(-c4ccc(F)c5sc(N)c(C#N)c45)c(C(F)(F)F)cc23)C[C@H]1C` [Compound 334] was tested, and the IC50 was less than 100 nM.
`C=CC(=O)N1CCN(c2nc(OC[C@]34CCCN3C[C@H](F)C4)nc3c(F)c(-c4ccc(F)c5sc(N)nc45)c(C(F)(F)F)cc23)C[C@@H]1C` [Compound 165] gave an IC50 of less than 100 nM.
For `C=CC(=O)N1C[C@@H](F)[C@@H](N(CC)c2nc(OC[C@@]34CCCN3C[C@H](F)C4)nc3c(C#N)c(-c4ccc(F)c5sc(N)c(C#N)c45)c(Cl)cc23)C1` [Compound 380], the IC50 was less than 100 nM.
Compound `C=CC(=O)N1CCN(c2nc(OC[C@]34CCCN3C[C@H](F)C4)nc3c(F)c(-c4ccc(F)c5sc(N)nc45)c(C(F)(F)F)cc23)[C@@H](C)C1` [Compound 177] has an IC50 of less than 100 nM.
For `C=CC(=O)N1CCN(c2nc(OCC34CCCN3CCC4)nc3c(F)c(-c4ccc(F)c5sc(N)nc45)c(C(F)(F)F)cc23)CC1` [Compound 80, 1-(4-(7-(2-amino-7-fluorobenzo[d]thiazol-4-yl)-8-fluoro-2-((tetrahydro-1H-pyrrolizin-7a(5H)-yl)methoxy)-6-(trifluoromethyl)quinazolin-4-yl)piperazin-1-yl)prop-2-en-1-one], the IC50 was less than 100 nM.
Work on `C=CC(=O)N1CC[C@@H](N(C)c2nc(OC[C@@]34CCCN3C[C@H](F)C4)nc3c(F)c(-c4ccc(F)c5sc(N)c(C#N)c45)c(C(F)(F)F)cc23)C1` [Compound 253] yielded an IC50 of less than 100 nM.
`C=CC(=O)N1CC[C@@H](N(CC)c2nc(OC[C@@]34CCCN3C[C@H](F)C4)nc3cc(-c4ccc(F)c5sc(N)c(C#N)c45)c(F)cc23)[C@H]1C` [Compound 414] was tested, and the IC50 was less than 100 nM.
`C=CC(=O)N1CC[C@@H](N(CC)c2nc(OC[C@@]34CCCN3C[C@H](F)C4)nc3cc(-c4ccc(F)c5sc(N)c(C#N)c45)c(C#N)cc23)[C@H]1COC` [Compound 439] showed an IC50 of 100 to 1000 nM.
Work on `C=CC(=O)N1CC(Nc2nc(OCC34CCCN3CCC4)nc3c(F)c(-c4ccc(F)c5sc(N)nc45)c(Cl)cc23)C1` [Compound 49, 1-(3-((7-(2-amino-7-fluorobenzo[d]thiazol-4-yl)-6-chloro-8-fluoro-2-((tetrahydro-1H-pyrrolizin-7a(5H)-yl)methoxy)quinazolin-4-yl)amino)azetidin-1-yl)prop-2-en-1-one] yielded an IC50 greater than 1000 nM.
In the case of `C=CC(=O)N1CC[C@@H](N(C)c2c(C#N)c(OC[C@@]34CCCN3C[C@H](F)C4)nc3c(F)c(-c4ccc(F)c5sc(N)nc45)c(Cl)cc23)C1` (atropisomer, axis not shown) [Compound 234], the IC50 is reported as greater than 1000 nM.
For `C=CC(=O)N1CCC(N(CC)c2nc(OC[C@@H]3CCCN3C)nc3cc(-c4ccc(F)c5sc(N)c(C#N)c45)c(C#N)cc23)[C@H]1COC` (stereo partly drawn) [Compound 470], the IC50 was 100 to 1000 nM.
`C=CC(=O)N1C[C@@H](F)[C@@H](N(CC)c2nc(OCC34CCCN3CCC4)nc3cc(-c4ccc(F)c5sc(N)c(C#N)c45)c(C(F)(F)F)cc23)C1` [Compound 376] was tested, and the IC50 was less than 100 nM.
For `C=CC(=O)N1CC[C@@H](N(C)c2nc(OC[C@@]34CCCN3C[C@H](F)C4)nc3cc(-c4c(F)cc(F)c5sc(N)nc45)c(C(F)(F)F)cc23)C1` [Compound 305], the IC50 was less than 100 nM.
`C=CC(=O)N1CC[C@@H](N(CC)c2nc(OC[C@@]34CCCN3C[C@H](F)C4)nc3c(F)c(-c4ccc(F)c5sc(N)c(C#N)c45)c(C(F)(F)F)cc23)[C@H]1C` [Compound 403] was tested, and the IC50 was less than 100 nM.
For `C=CC(=O)N1CCN(c2nc(OC[C@@]34CCCN3C[C@H](F)C4)nc3c(F)c(-c4ccc(F)c5sc(N)nc45)c(C(F)(F)F)cc23)C[C@H]1C` [Compound 207], the IC50 was less than 100 nM.
For `C=CC(=O)N1C[C@H](C)N(c2nc(OC[C@@]34CCCN3C[C@H](F)C4)nc3c(F)c(-c4ccc(F)c5sc(N)c(C#N)c45)ccc23)C[C@H]1C` [Compound 312], the IC50 was less than 100 nM.

Same assay, conditions: pERK inhibition IC50, NCI-H358 cells, 30 min incubation; read-out: PERK in H358 cell
In the case of `C=CC(=O)N1C[C@H](C)N(c2nc(OC[C@@]34CCCN3C[C@H](F)C4)nc3c(F)c(-c4ccc(F)c5sc(N)nc45)c(C(F)(F)F)cc23)C[C@H]1C` (atropisomer, axis not shown) [Compound 268], the IC50 is reported as less than 100 nM.
Compound `C=CC(=O)N1CCC[C@@H](N(C)c2nc(OC[C@@]34CCCN3C[C@H](F)C4)nc3c(F)c(-c4ccc(F)c5sc(N)nc45)c(Cl)cc23)C1` (atropisomer, axis not shown) [Compound 242] has an IC50 of 100 to 1000 nM.
Compound `C=CC(=O)N1CCC[C@@H](N(C)c2nc(OC[C@@]34CCCN3C[C@H](F)C4)nc3c(F)c(-c4ccc(F)c5sc(N)nc45)c(C(F)(F)F)cc23)C1` [Compound 245] has an IC50 greater than 1000 nM.
`C=CC(=O)N1CC[C@@H](N(c2nc(OC[C@@]34CCCN3C[C@H](F)C4)nc3c(F)c(-c4ccc(F)c5sc(N)nc45)c(C(F)(F)F)cc23)C2CC2)C1` (single isomer, unassigned) [Compound 236] gave an IC50 of less than 100 nM.

— patent US12528818B2, “Compositions and methods for inhibition of RAS” (Leidos Biomedical Research, Inc., priority 2021, dated 2026)
